The structures appear in SMILES notation.

One assay deals with HPE cells. The assay can be described thus: 2D difference gel electrophoresis (DIGE) of hormone-treated HPE cells. It is filed as cell-based, human. The note with it: 10^−8 M DHT or 10^−5 M flutamide vs (−) hormone. The source says: FIGS. 9A-B. Identification of androgen- and flutamide-regulated proteins by 2D difference gel electrophoresis. […] Whole cell proteins were extracted, labeled with the dyes Cy2 (ex 480, em 530), Cy3 (ex 540, em 590), and Cy5 (ex 620, em 680) respectively. The labeled proteins were mixed together and subjected to a pH gradient of pH 4 to pH 7 in the first dimension and separated by PAGE in the second dimension. […] The proteins were excised, subjected to in-gel tryptic digestion and analyzed by MS. The tryptic peptides were identified by searching the protein data bases such as the NCBInr and SWISS- PROT databases. EST databases were also searched with fragmentation data from tandem mass spectrometry when necessary.
Identification of antiandrogen-regulated genes. […] In this study, 8 proteins were identified by tryptic mapping and the sequences verified by partial amino acid sequencing of individual tryptic peptides (FIG. 9B). […] Of particular interest were calreticulin, DJ-1 and non-selenium glutathione peroxidase. Calreticulin binds to the AR DNA binding domain to block AR-activated transcription. Therefore, down-regulation of calreticulin expression would typically facilitate AR binding to the AR binding site to transactivate gene expression (Dedhar et al., 1994). Calreticulin also interacts with integrins during cell attachment and spreading (Coppolino and Dedhar, 1999) and a loss or decrease in calreticulin could potentially increase cell motility and increase HPE cell metastatic potential. The RNA binding protein regulatory subunit DJ-1 has oncogenic potential, transforming NIH3T3 cells in cooperation with ras (Nagakubo et al., 1997). DJ-1 also positively regulates AR-activated transcription by binding PIASx alpha and making it unavailable for the AR:PIASx alpha complex which functions to inhibit AR activation (Takahasi et al., 2001). Non-selenium glutathione peroxidase gene was initially identified as a KGF-regulated gene (Munz et al., 1997) and it is highly expressed in the hyperproliferative epithelium at the wound edge.

A further assay concerns the target mutant LNCaP AR (Homo sapiens, UniProt P10275, T878A). The note with it: LNCaP cells, increasing concentrations of R1881 (10^−12 to 10^−6 M).
A further assay concerns the target endogenous AR (Homo sapiens, UniProt P10275).

Sequence of endogenous AR (P10275 whole entry): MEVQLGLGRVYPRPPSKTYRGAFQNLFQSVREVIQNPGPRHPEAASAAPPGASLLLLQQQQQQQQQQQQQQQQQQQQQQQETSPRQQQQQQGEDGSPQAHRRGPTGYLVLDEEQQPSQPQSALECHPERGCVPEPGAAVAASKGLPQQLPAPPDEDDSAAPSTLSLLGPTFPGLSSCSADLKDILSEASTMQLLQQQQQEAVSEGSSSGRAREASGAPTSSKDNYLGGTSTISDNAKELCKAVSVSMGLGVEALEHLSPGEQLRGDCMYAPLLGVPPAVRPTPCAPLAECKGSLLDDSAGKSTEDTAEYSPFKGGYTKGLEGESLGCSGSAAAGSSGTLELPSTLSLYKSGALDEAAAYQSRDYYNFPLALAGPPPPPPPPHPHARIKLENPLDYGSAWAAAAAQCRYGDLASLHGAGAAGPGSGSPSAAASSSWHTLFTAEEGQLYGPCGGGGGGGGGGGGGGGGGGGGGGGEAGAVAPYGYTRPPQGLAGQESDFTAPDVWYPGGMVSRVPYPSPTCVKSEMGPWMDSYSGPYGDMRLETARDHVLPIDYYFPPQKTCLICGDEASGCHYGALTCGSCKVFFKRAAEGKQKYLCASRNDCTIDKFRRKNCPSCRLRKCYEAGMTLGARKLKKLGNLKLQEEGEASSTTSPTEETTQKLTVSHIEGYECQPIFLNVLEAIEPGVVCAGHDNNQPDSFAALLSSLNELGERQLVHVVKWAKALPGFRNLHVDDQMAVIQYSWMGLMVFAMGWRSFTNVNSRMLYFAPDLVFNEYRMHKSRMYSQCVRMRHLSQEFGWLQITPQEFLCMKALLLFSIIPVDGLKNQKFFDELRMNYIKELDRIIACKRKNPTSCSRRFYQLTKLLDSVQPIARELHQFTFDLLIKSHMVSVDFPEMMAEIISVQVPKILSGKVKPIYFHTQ
Sequence of mutant LNCaP AR (P10275 whole entry T878A): as the sequence (P10275 whole entry) above, with T878A counted along it

As to `C[C@]12CCC(=O)C[C@@H]1CC[C@@H]1[C@@H]2CC[C@]2(C)[C@@H](O)CC[C@@H]12` [DHT], in the assay with HPE cells, the Calreticulin expression result is “increased”, the expression of actin result was “down-regulated”, the “expression of annexin V” value is on record as “down-regulated” and the “expression of glutathione S-transferase” value is recorded as “down-regulated”. Also, in the assay on HPE cells, the expression of vimentin entry is reported as “down-regulated”.
`C[C@]1(O)CC[C@H]2[C@@H]3CCC4=CC(=O)CCC4=C3C=C[C@@]21C` [R1881]: at mutant LNCaP AR, the “concentration at which near maximal CAT activity was observed” value is on record as 10^−8 M. Also, at endogenous AR, the “ARR2PB-activated CAT gene expression on addition of androgen” value was “did not increase these levels any further” and the “CAT gene expression on addition of androgen” value is “did not increase CAT gene expression any further”.
